Values of other authors in patent US20200206184A1, “PHARMACEUTICAL COMPOSITIONS FOR THE TREATMENT OF DISEASE AND/OR SYMPTOMS IN ARTHRITIS” (priority 2004, published 2020).

How the values were obtained:
[1] = test system: PBQ-induced writhing in mice; details: ranking among cannabinoids
[2] = test system: collagen induced arthritis model in mice
[3] = test system: patient with Mediterranean fever; details: 50 mg of THC

Compound | Inhibition of PBQ-induced writhing ([1]; mice, oral administration) | TNF-α production (TNF-α) | Nitric oxide production (nitric oxide) | Arthritis in collagen induced arthritis model [2] | Reducing analgesia and inflammation [1] | Amount of analgesia that the patient required [3]
C=C(C)[C@@H]1CCC(C)=C[C@H]1c1c(O)cc(CCCCC)cc1O [CBD, cannabidiol] | most effective | inhibition | inhibition | suppress arthritis in a dose dependant manner | – | –
CCCCCc1cc(O)c2c(c1)OC(C)(C)c1ccc(C)cc1-2 [CBN] | – | – | – | – | least effective | –
CCCCCc1cc(O)c2c(c1)OC(C)(C)[C@@H]1CCC(C)=C[C@@H]21 [THC, delta-9-tetrahydrocannabinol] | – | – | – | – | least effective | highly significant reduction
